Patent EP0489581A2, “Cosmetic composition” (UNILEVER PLC, priority 1990, dated 1992)

Tested on: skin surface
Experiment: Body shampoo streak of 0.1% EtNic against placebo on the other side (erythema meter, Cyclops pyrometer)
Assay type: in vivo, human
Design: ERYTHEMA METER AN / ERYTHEMA METER FA / ERYTHEMA METER UA / ERYTHEMA METER BR / ERYTHEMA METER SH / ERYTHEMA METER WA / ERYTHEMA METER HI / ERYTHEMA METER TH / ERYTHEMA METER CA: scale not given here; TEMPERATURE CHANGE FA / TEMPERATURE CHANGE UA / TEMPERATURE CHANGE BR / TEMPERATURE CHANGE SH / TEMPERATURE CHANGE WA / TEMPERATURE CHANGE HI / TEMPERATURE CHANGE TH / TEMPERATURE CHANGE CA / TEMPERATURE CHANGE AN: unit not given here
Details: 0.1% EtNic, left hand side; for ERYTHEMA METER AN / TEMPERATURE CHANGE AN: ankle; for ERYTHEMA METER CA / TEMPERATURE CHANGE CA: calf; for ERYTHEMA METER HI / TEMPERATURE CHANGE HI: hip; for ERYTHEMA METER FA / TEMPERATURE CHANGE FA: mid forearm; for ERYTHEMA METER BR / TEMPERATURE CHANGE BR: side breast; for ERYTHEMA METER SH / TEMPERATURE CHANGE SH: side shoulder
Experimental: A subject showered in the conventional way but without shampoo or soap. The redness and temperature of the skin surface was measured at symmetrical points from the mid forearm down the body to the ankle, after the excess water had been removed by light towelling. The person re-showered and between 2 and 3 grammes of shampoo according to Example 5 was streaked down one side of the body in a broad line. The body shampoo was rubbed into a lather periodically during the two minutes. A placebo shampoo of corresponding composition was applied first to one side of the body and then the time started when the shampoo with the ethyl nicotinate was applied to the other side. […] The redness was measured with the erythema meter whilst the temperature was measured with a Cyclops pyrometer at ten sites on each side. The time was taken as the mean of the two times for each pair of sites. The time course was followed for about 50 minutes. After about 210 minutes the experiment was repeated, but treating the opposite sides. The result shown below are the differences in redness and temperature of the corresponding sites.

[1] = mean time 0.00 (baseline), difference of corresponding sites
[2] = mean time 17.56, difference of corresponding sites
[3] = mean time 31.56, difference of corresponding sites
[4] = mean time 44.89, difference of corresponding sites
[5] = mean time 59.61, difference of corresponding sites
[6] = mean time 77.21, difference of corresponding sites
[7] = time 10.00, mean time 10.37, difference of corresponding sites
[8] = time 25.00, mean time 24.98, difference of corresponding sites
[9] = time 38.00, mean time 38.30, difference of corresponding sites
[10] = time 53.00, mean time 52.87, difference of corresponding sites
[11] = thigh, mean time 0.00 (baseline), difference of corresponding sites

## CCOC(=O)c1cccnc1 [EtNic, ethyl nicotinate]
[1]
  ERYTHEMA METER AN: -0.53
  TEMPERATURE CHANGE AN: -0.10
  ERYTHEMA METER CA: -0.26
  TEMPERATURE CHANGE CA: -0.30
  ERYTHEMA METER HI: 0.03
  TEMPERATURE CHANGE HI: 0.10
  ERYTHEMA METER FA: -0.65
  TEMPERATURE CHANGE FA: -0.20
  ERYTHEMA METER BR: -0.12
  TEMPERATURE CHANGE BR: -1.10
  ERYTHEMA METER SH: 0.00
  TEMPERATURE CHANGE SH: 0.40
[2]
  TEMPERATURE CHANGE AN: 0.30
  TEMPERATURE CHANGE CA: 2.90
  TEMPERATURE CHANGE HI: 1.10
  TEMPERATURE CHANGE FA: -0.50
  TEMPERATURE CHANGE BR: 4.80
  TEMPERATURE CHANGE SH: 3.40
[3]
  TEMPERATURE CHANGE AN: -0.20
  TEMPERATURE CHANGE CA: 2.30
  TEMPERATURE CHANGE HI: 3.70
  TEMPERATURE CHANGE FA: 0.20
  TEMPERATURE CHANGE BR: 4.80
  TEMPERATURE CHANGE SH: 4.50
[4]
  TEMPERATURE CHANGE AN: 0.70
  TEMPERATURE CHANGE CA: 1.10
  TEMPERATURE CHANGE HI: 3.30
  TEMPERATURE CHANGE FA: -0.30
  TEMPERATURE CHANGE BR: 4.30
  TEMPERATURE CHANGE SH: 3.30
[5]
  TEMPERATURE CHANGE AN: 0.80
  TEMPERATURE CHANGE CA: 0.90
  TEMPERATURE CHANGE HI: 2.90
  TEMPERATURE CHANGE FA: 0.20
  TEMPERATURE CHANGE BR: 1.70
  TEMPERATURE CHANGE SH: 1.50
[6]
  TEMPERATURE CHANGE AN: 0.30
  TEMPERATURE CHANGE CA: 0.50
  TEMPERATURE CHANGE HI: 2.20
  TEMPERATURE CHANGE FA: 0.00
  TEMPERATURE CHANGE BR: 1.00
  TEMPERATURE CHANGE SH: 0.30
[7]
  ERYTHEMA METER AN: 0.29
  ERYTHEMA METER CA: 0.26
  ERYTHEMA METER HI: 0.74
  ERYTHEMA METER FA: 0.39
  ERYTHEMA METER BR: 1.09
  ERYTHEMA METER SH: 1.08
[8]
  ERYTHEMA METER AN: 0.56
  ERYTHEMA METER CA: 0.41
  ERYTHEMA METER HI: 0.31
  ERYTHEMA METER FA: 0.00
  ERYTHEMA METER BR: 0.71
  ERYTHEMA METER SH: 1.06
[9]
  ERYTHEMA METER AN: -0.43
  ERYTHEMA METER CA: -0.17
  ERYTHEMA METER HI: 0.12
  ERYTHEMA METER FA: -0.06
  ERYTHEMA METER BR: 0.91
  ERYTHEMA METER SH: 0.77
[10]
  ERYTHEMA METER AN: -0.25
  ERYTHEMA METER CA: -0.12
  ERYTHEMA METER HI: 0.13
  ERYTHEMA METER FA: 0.05
  ERYTHEMA METER BR: 0.41
  ERYTHEMA METER SH: 0.38
[11]
  ERYTHEMA METER TH: -0.23
  TEMPERATURE CHANGE TH: 0.10
thigh, mean time 17.56, difference of corresponding sites
  TEMPERATURE CHANGE TH: 3.70
thigh, mean time 31.56, difference of corresponding sites
  TEMPERATURE CHANGE TH: 3.20
thigh, mean time 44.89, difference of corresponding sites
  TEMPERATURE CHANGE TH: 2.50
thigh, mean time 59.61, difference of corresponding sites
  TEMPERATURE CHANGE TH: 1.90
thigh, mean time 77.21, difference of corresponding sites
  TEMPERATURE CHANGE TH: 1.30
